{"source": "patent US6627603B1", "about": "“Method for releasing an active principle contained a multiple emulsion” (Centre National de la Recherche Scientifiquue (C.N.R.S.), priority 1997, dated 2003)", "format_in_all_cases": "physicochemical", "key": {"[1]": {"experiment": "Multiple emulsions with Tween 80 in aqueous phase A2: transfer of internal water droplets", "settings": "Tween 80 as surfactant in aqueous phase A2", "protocol": "Multiple emulsions are prepared according to the procedure described in the preceding examples by using Tween 80 in the aqueous phase A2 as surfactant. Its HLB is 15 and its critical micelle concentration is […]. The same type of result is observed. Transfer of the internal water droplets is also dependent on the concentration Ce of the surfactant in the external phase. In this case, the limit concentration is approximately 200 CMC.\nIt is observed for this surfactant that the internal water droplets coalesce with one another. This instability appears rapidly and results in a few internal water drops with a greater surface area, still imprisoned in the oily globules."}, "[2]": {"experiment": "Characteristic release time by phase-contrast optical microscopy", "settings": "assessed visually using a microscope", "protocol": "Various emulsions are prepared according to the procedure defined in Example No. 1. The concentration of the surface-active agent (SDS) present in the external aqueous phase is varied and the change over time of the double emulsion is observed with a phase-contrast optical microscope (Zeiss Axiovert 100). The curve in FIG. 2 describes the change in the characteristic release time as a function of the concentration of surface-active agent present in the external aqueous phase. The characteristic release time is defined as the time at the end of which virtually all the droplets of phase A1 have been released into the external aqueous phase A2 (by coalescence). As indicated, this time is assessed visually using a microscope. It will be noted that the release time changes from several days, when the concentration is less than 10 CMC, to only a few hours, when the concentration is equal to 40 CMC."}, "[3]": {"experiment": "Potentiometric determination of salt (KCl) release from a monodisperse double emulsion", "protocol": "A monodisperse water-in-dodecane inverse emulsion which is stabilized with Span 80 is prepared.\nThe aqueous phase (80% by volume) is introduced with gentle shearing (of the order of 1000 s^−1) into a continuous phase composed of a dodecane/Span mixture (1:1 by mass). The aqueous phase comprises 1 mol per liter of potassium chloride. This salt acts as active substance which has to be released. The initial polydisperse emulsion is converted by a fractional crystallisation technique, so as to obtain a monodisperse emulsion (Bibette J., J. Colloid Interface Sci., 1991, 147, 474).\nThe preceding inverse emulsion is emulsified in its turn in an aqueous phase comprising a hydrophilic surface active agent (SDS). A double emulsion is thus obtained composed of oily globules comprising water droplets, which droplets result from the first stage.\nThe double emulsion is manufactured using a microfluidizer (Jet homogenizer from Labplant). This method consists in bringing the disperse phase and the continuous phase into contact under very high pressure and in then injecting the mixture via a hole with a small diameter (0.1 mm).\nThe concentration of the KCl initially incorporated in the internal aqueous phase of the double emulsion is measured in the external aqueous phase by potentiometry.\nThe potentiometric quantitative determination is based on the measurement of a difference in potential between an indicator electrode (Ag/AgCl) and a reference electrode (mercurous sulphate electrode) which are immersed in the colloidal solution comprising the electrolyte to be quantitatively determined (Cl^− ion). The concentration of the Cl^− ion is in this case directly related to the potential ΔE of the Ag/AgCl electrode by a relationship of the type:\nΔE=β+α log Cq (Nernst relationship).\nIt is then possible, via a calibration line, to know at any moment the concentration of Cl^− ion released into the external aqueous phase.\nThe results obtained are presented in graphical form in FIG. 1. […]"}, "[4]": {"experiment": "Transfer of inverse-emulsion water droplets to an aqueous surfactant phase, detected by AgCl precipitate", "protocol": "In a first step, a monodisperse water-in-dodecane inverse emulsion which is stabilized with Span 80® (sorbitan monooleate from the company Sigma) is prepared. This emulsion is prepared by slowing introducing the disperse aqueous phase (80% by volume) with gentle shearing (of the order of 1000 s^−1) into a continuous phase composed of a dodecane/Span 80 mixture in a 1/1 ratio by weight. Sodium chloride NaCl (0.1M), intended to simulate the presence of the active principle in the aqueous phase A1, is added. Advantageously, it has been shown that the presence of this salt reinforces the stability of the inverse emulsion Ei (Aronson M. P., Petko M. F., J. Colloid Interface Sci., 1993, 159, 134). The initial polydisperse emulsion is converted by a fractional crystallisation technique (Bibette J., J. Colloid Interface Sci., 1991, 147, 474) into a monodisperse emulsion.\nSeveral multiple emulsions were subsequently prepared from this inverse emulsion by mixing it with an aqueous solution comprising sodium dodecyl sulphate (SDS, HLB=40) at various concentrations below or greater than its critical micelle concentration, which is 8×10^−3 mol/l.\nThe test consists in carefully bringing together (over an area of 1 cm^2) equivalent volumes (1 cm^3) of the inverse emulsion and of water comprising variable amounts of SDS surfactant and a concentration of AgNO3 at a concentration of 10^−3 mol/l. The transfer of the water present in the inverse droplets to the macroscopic aqueous phase is detected by observation of an AgCl precipitate which is formed at the macroscopic interface when the internal contents transfer to the external phase. This is because, when the water droplets move via a coalescence phenomenon from the upper inverse emulsion to the lower aqueous phase, the upper phase gradually becomes transparent whereas the lower phase gradually becomes milky.\nAbove this limit concentration, the water droplets quickly transfer (in less than 48 hours) within the second phase. […]"}, "[5]": {"experiment": "Stability of the multiple emulsion versus surfactant concentration in the external phase (microscope)", "protocol": "In this test, a multiple emulsion is prepared by dispersing the inverse emulsion in a continuous aqueous phase comprising the SDS surfactant at a concentration equal to one tenth of its critical micelle concentration. The inverse phase is the same as that described above in Example 1: the fraction by volume of water drops is present therein at a concentration of 10% by volume with 0.1 mol/l of NaCl for a concentration of surfactant of 2%. The multiple emulsion is therefore composed of 90% by volume of an external aqueous phase and of 10% of the inverse phase. A high degree of shearing, of the order of 10,000 revolutions per minute, is applied using an Ultra-turrax device for 10 seconds to a total volume of […] of the overall composition, which results in the appearance of double drops in which the water content and the size of the droplets are retained.\nDouble drops are observed, with each of them comprising small inverse water drops.\nThis test is repeated, the concentration of the surfactant within the external aqueous phase Ce being varied and the double emulsion being freshly prepared, and the duration of existence of the internal water droplets is recorded. […] This transition takes place for exactly the same concentration as that mentioned in Example 1, that is to say approximately 10 CMC. […] It is thus observed, under a microscope, that only phenomena of coalescence between the tiny inverse water drops and the interface of the direct drops are responsible for the change which is observed.\nOnly a gradual decrease in the concentration of internal droplets is observed."}}}
{"compound": "CCCCCCCC/C=C\\CCCCCCCC(=O)OCCOCC(OCCO)C1OCC(OCCO)C1OCCO", "note": "(stereo not shown) [Tween 80]", "values": [{"measurement": "limit concentration for transfer of the internal water droplets", "setting": "[1]", "value": "approximately 200 CMC"}]}
{"compound": "CCCCCCCCCCCCOS(=O)(=O)[O-].[Na+]", "note": "[SDS, sodium dodecyl sulphate]", "values": [{"measurement": "characteristic release time", "setting": "[2]; SDS concentration equal to 40 CMC", "value": "a few hours"}, {"measurement": "characteristic release time", "setting": "[2]; SDS concentration less than 10 CMC", "value": "several days"}, {"measurement": "concentration threshold", "setting": "[3]; KCl double emulsion, globules 4 μm, droplets 0.3 μm", "value": 10, "unit": "CMC"}, {"measurement": "time corresponding to complete release of the salt", "setting": "[3]; SDS concentration greater or equal to 10 CMC, KCl 1 mol per liter in internal phase, release by coalescence", "value": "less than 500 minutes"}, {"measurement": "release of the salt into the external aqueous phase", "setting": "[3]; SDS concentration less than 10 CMC, passive diffusion, emulsion retains its double nature", "value": "very slow"}, {"measurement": "time for transfer of the water droplets within the second phase", "setting": "[4]; above the limit concentration (approximately 10 CMC)", "value": "less than 48 hours"}, {"measurement": "concentration at which transfer via coalescence takes place", "setting": "[4]; same test with gentle centrifuging for 15 minutes", "value": 10, "unit": "CMC"}, {"measurement": "limit concentration of surfactant below which the water droplets do not transfer to the second phase", "setting": "[4]; water-in-dodecane inverse emulsion (Span 80, NaCl 0.1M) on water with AgNO3 10^−3 mol/l, no transfer even for several days below the limit", "value": "approximately 10 CMC"}, {"measurement": "coalescence between the big double globules", "setting": "[5]; SDS at one tenth of its CMC in external phase, after storage for two months", "value": "No phenomenon of coalescence"}, {"measurement": "period of time for conversion into a direct emulsion", "setting": "[5]; SDS concentration above the transition (approximately 10 CMC)", "value": "a few hours"}, {"measurement": "duration for which the double emulsion is retained", "setting": "[5]; SDS concentration below the transition (approximately 10 CMC)", "value": "more than one month"}, {"measurement": "concentration at which the double emulsion is converted into a direct emulsion (transition)", "setting": "[5]; freshly prepared double emulsion, NaCl 0.1 mol/l internal phase, Span 80 2%", "value": "approximately 10 CMC"}]}
